Assay results: patent US12371454B2, “Cyclic peptide compound having Kras inhibitory action” (priority 2019, dated 2025)
Starred links: 1 amine or outer side, 2 acyl side, 3 side chain; linkers in the order of their positions; H or OH if unused. Positions of bridges follow the written chain, without caps; N, C: chain ends. Non-standard residues stand in square brackets, D forms with d. Residues, ends and D or L forms follow the SMILES beside them. *: point of attachment. hPhe(3,5-F2-4-CF3) = N[C@@H](CCc1cc(F)c(C(F)(F)F)c(F)c1)C(=O)O; hPhe(3-Cl-4-CF3) = N[C@@H](CCc1ccc(C(F)(F)F)c(Cl)c1)C(=O)O; hPhe(3-F,4-CF3) = N[C@@H](CCc1ccc(C(F)(F)F)c(F)c1)C(=O)O; X60 = CC(C)Oc1cc(CC[C@H](N[*:1])C(=O)[*:2])cc(Cl)c1Cl; NMePhe(4-CF3) = CN[C@@H](Cc1ccc(C(F)(F)F)cc1)C(=O)O; X74 = O=C([C@H](CCc1cc(Cl)c(Cl)c(Cl)c1)N[*:1])[*:2]; 3Oxa8azabicyclo(3.2.1)octane = C1CC2COCC1N2*; NMePhe(4-Cl) = CN[C@@H](Cc1ccc(Cl)cc1)C(=O)O; NMePhe(4-Me) = CN[C@@H](Cc1ccc(C)cc1)C(=O)O; NMedβ3hAla = C[C@H](CC(=O)[*:2])N(C)[*:1]; NMeGly(cPent) = CN[C@H](C(=O)O)C1CCCC1; NMeGly(cBu) = CN[C@H](C(=O)O)C1CCC1; NMeCha = CN[C@@H](CC1CCCCC1)C(=O)O; NMeAhp(2) = CCCCC[C@H](NC)C(=O)O; NMeChg = CN[C@H](C(=O)O)C1CCCCC1; NMeI = CC[C@H](C)[C@H](NC)C(=O)O; NMeD = CN[C@@H](CC(=O)O)C(=O)O; NMeL = CN[C@@H](CC(C)C)C(=O)O; NMeV = CN[C@H](C(=O)O)C(C)C; d(β3hA) = C[C@@H](N)CC(=O)O; NMeAbu = CC[C@H](NC)C(=O)O; NMeS = CN[C@@H](CO)C(=O)O; Pip = O=C(O)[C@@H]1CCCCN1; Morpholide = C1CN(*)CCO1; NMeA = CN[C@@H](C)C(=O)O; Piperidide = C1CCN(*)CC1; Pyrrolidide = C1CCN(*)C1; Ac5c = NC1(C(=O)O)CCCC1; Aze = O=C(O)[C@@H]1CCN1; NEtG = CCNCC(=O)O; Sar = CNCC(=O)O; Propyl = CCC*

Each molecule was assayed on Human pancreatic cancer cell line AsPC-1 (assay: Measurement of AsPC-1 cell growth inhibition (AsPC-1 CGI)). Conditions: 96 h.
Type: cell-based
Procedure: Measurement of AsPC-1 Cell Growth Inhibition (AsPC-1 CGI)
Test compounds were serially diluted with dimethyl sulfoxide, and 200 nL was then dispensed to a U-bottom 96-well plate using Labcyte Echo. Human pancreatic cancer cell line AsPC-1 was suspended in RPMI-1640 medium supplemented with 15% fetal bovine serum to prepare a cell suspension at 1000 cells/100 μL. The cell suspension was dispensed to a plate containing a test compound at 100 μL per well and incubated at 37° C. in a 5% carbon dioxide gas incubator. 96 hours later, 80 μL of CellTiter-Glo (Promega) was added to each well and […] was measured.

IC50	SMILES
20 to 50 nM	CC[C@H](C)[C@@H]1NC(=O)[C@H](CC(C)C)N(C)C(=O)C[C@@H](C(=O)N2CCOCC2)N(C)C(=O)[C@H](C2CCCC2)N(C)C(=O)C2(CCCC2)NC(=O)[C@@H]2CCCN2C(=O)[C@H](CCc2ccc(C(F)(F)F)c(Cl)c2)NC(=O)CN(CC)C(=O)[C@H](C2CCCC2)N(C)C(=O)[C@@H]2CCN2C(=O)[C@H](C)N(C)C1=O [Compound 1142] ([NMeL]I[NMeA][Aze][NMeGly(cPent)][NEtG][hPhe(3-Cl-4-CF3)]P[Ac5c][NMeGly(cPent)][NMeD]-Morpholide; lactam N-11)
100 to 500 nM	CC[C@H](C)[C@@H]1NC(=O)[C@H](CC(C)C)N(C)C(=O)C[C@@H](C)N(C)C(=O)[C@H](C2CCCCC2)N(C)C(=O)C2(CCCC2)NC(=O)[C@@H]2CCCN2C(=O)[C@H](CCc2cc(F)c(C(F)(F)F)c(F)c2)NC(=O)CN(C)C(=O)[C@H](Cc2ccc(C(F)(F)F)cc2)N(C)C(=O)[C@@H]2CCN2C(=O)[C@H](C)N(C)C1=O [Compound 39] (cyclo([Ac5c][NMeChg][NMedβ3hAla][NMeL]I[NMeA][Aze][NMePhe(4-CF3)][Sar][hPhe(3,5-F2-4-CF3)]P))
20 to 50 nM	CC[C@H](C)[C@@H]1NC(=O)[C@H](CC(C)C)N(C)C(=O)C[C@@H](C(=O)N2CCCC2)N(C)C(=O)[C@H](C2CCCC2)N(C)C(=O)C2(CCCC2)NC(=O)[C@@H]2CCCN2C(=O)[C@H](CCc2ccc(C(F)(F)F)c(F)c2)NC(=O)CN(C)C(=O)[C@H](C2CCCC2)N(C)C(=O)[C@@H]2CCN2C(=O)[C@H](C)N(C)C1=O [Compound 918] ([NMeL]I[NMeA][Aze][NMeGly(cPent)][Sar][hPhe(3-F,4-CF3)]P[Ac5c][NMeGly(cPent)][NMeD]-Pyrrolidide; lactam N-11)
50 to 100 nM	CC[C@H](C)[C@@H]1NC(=O)[C@H](CC(C)C)N(C)C(=O)C[C@@H](C(=O)N2CCCC2)NC(=O)[C@H]([C@@H](C)CC)N(C)C(=O)C2(CCCC2)NC(=O)[C@@H]2CCCN2C(=O)[C@H](CCc2ccc(C(F)(F)F)c(Cl)c2)NC(=O)CN(C)C(=O)[C@H](CC2CCCCC2)N(C)C(=O)[C@@H]2CCN2C(=O)[C@H](C)N(C)C1=O [Compound 453] ([NMeL]I[NMeA][Aze][NMeCha][Sar][hPhe(3-Cl-4-CF3)]P[Ac5c][NMeI]D-Pyrrolidide; lactam N-11)
100 to 500 nM	CC[C@H](C)[C@@H]1NC(=O)[C@H](C(C)C)N(C)C(=O)C[C@@H](C)NC(=O)[C@H](CC(C)C)N(C)C(=O)C2(CCCC2)NC(=O)[C@H](CC(C)C)N(C)C(=O)[C@H](CCc2ccc(C(F)(F)F)c(Cl)c2)NC(=O)CN(C)C(=O)[C@H](Cc2ccc(Cl)cc2)N(C)C(=O)CN(C)C(=O)CN(C)C1=O [Compound 1014] (cyclo([Ac5c][NMeL][d(β3hA)][NMeV]I[Sar][Sar][NMePhe(4-Cl)][Sar][hPhe(3-Cl-4-CF3)][NMeL]))
100 to 500 nM	CC[C@H](C)[C@@H]1NC(=O)[C@H](C(C)C)N(C)C(=O)C[C@@H](C)NC(=O)[C@H](C(C)C)N(C)C(=O)C2(CCCC2)NC(=O)[C@H](CC(C)C)N(C)C(=O)[C@H](CCc2ccc(C(F)(F)F)c(Cl)c2)NC(=O)CN(C)C(=O)[C@H](Cc2ccc(Cl)cc2)N(C)C(=O)CN(C)C(=O)CN(C)C1=O [Compound 1069] (cyclo([Ac5c][NMeV][d(β3hA)][NMeV]I[Sar][Sar][NMePhe(4-Cl)][Sar][hPhe(3-Cl-4-CF3)][NMeL]))
100 to 500 nM	CC[C@H](C)[C@@H]1NC(=O)[C@H](CC(C)C)N(C)C(=O)C[C@@H](C)NC(=O)[C@H](C2CCCC2)N(C)C(=O)C2(CCCC2)NC(=O)[C@@H]2CCCN2C(=O)[C@H](CCc2ccc(C(F)(F)F)c(Cl)c2)NC(=O)CN(C)C(=O)[C@H](Cc2ccc(C)cc2)N(C)C(=O)CN(C)C(=O)CN(C)C1=O [Compound 1471, (3S,9S,18S,21S,25R,28S,34S)-3-[2-[3-chloro-4-(trifluoromethyl)phenyl]ethyl]-28-cyclopentyl-21-isobutyl-7,10,13,16,22,25,29-heptamethyl-18-[(1S)-1-methylpropyl]-9-(p-tolylmethyl)spiro[1,4,7,10,13,16,19,22,26,29,32-undecazabicyclo[32.3.0]heptatriacontane-31,1′-cyclopentane]-2,5,8,11,14,17,20,23,27,30,33-undecone] (cyclo([Ac5c][NMeGly(cPent)][d(β3hA)][NMeL]I[Sar][Sar][NMePhe(4-Me)][Sar][hPhe(3-Cl-4-CF3)]P))
20 to 50 nM	CCCCC[C@H]1C(=O)N[C@@H]([C@@H](C)CC)C(=O)N[C@@H](C)C(=O)N2CC[C@H]2C(=O)N(C)[C@@H](CC2CCCCC2)C(=O)N(C)CC(=O)N[C@@H](CCc2ccc(C(F)(F)F)c(Cl)c2)C(=O)N2CCC[C@H]2C(=O)NC2(CCCC2)C(=O)N(C)[C@@H](C2CCCC2)C(=O)N(C)[C@H](C(=O)N2CCOCC2)CC(=O)N1C [Compound 263] ([NMeAhp(2)]IA[Aze][NMeCha][Sar][hPhe(3-Cl-4-CF3)]P[Ac5c][NMeGly(cPent)][NMeD]-Morpholide; lactam N-11)
100 to 500 nM	CC[C@H](C)[C@@H]1NC(=O)[C@H](CC(C)C)N(C)C(=O)C[C@@H](C)NC(=O)[C@H](C(C)C)N(C)C(=O)C2(CCCC2)NC(=O)[C@@H]2CCCN2C(=O)[C@H](CCc2ccc(C(F)(F)F)c(Cl)c2)NC(=O)CN(C)C(=O)[C@H](CC2CCCCC2)N(C)C(=O)[C@@H]2CCN2C(=O)[C@@H]2CCCCN2C1=O [Compound 416] (cyclo([Ac5c][NMeV][d(β3hA)][NMeL]I[Pip][Aze][NMeCha][Sar][hPhe(3-Cl-4-CF3)]P))

SMILES	IC50
CC[C@H](C)[C@@H]1NC(=O)[C@H](CC(C)C)N(C)C(=O)C[C@@H](C(=O)N2CCCCC2)N(C)C(=O)[C@H](C2CCCC2)N(C)C(=O)C2(CCCC2)NC(=O)[C@@H]2CCCN2C(=O)[C@H](CCc2ccc(C(F)(F)F)c(Cl)c2)NC(=O)CN(C)C(=O)[C@H](C2CCCC2)N(C)C(=O)[C@@H]2CCN2C(=O)[C@H](C)N(C)C1=O [Compound 182] ([NMeL]I[NMeA][Aze][NMeGly(cPent)][Sar][hPhe(3-Cl-4-CF3)]P[Ac5c][NMeGly(cPent)][NMeD]-Piperidide; lactam N-11)	20 to 50 nM
CC[C@H](C)[C@@H]1NC(=O)[C@H](CC(C)C)N(C)C(=O)C[C@@H](C(=O)N2CCCCC2)N(C)C(=O)[C@H](C2CCCCC2)N(C)C(=O)C2(CCCC2)NC(=O)[C@@H]2CCCN2C(=O)[C@H](CCc2ccc(C(F)(F)F)c(Cl)c2)NC(=O)CN(C)C(=O)[C@H](CC2CCCCC2)N(C)C(=O)CN(C)C(=O)CN(C)C1=O [Compound 558] ([NMeL]I[Sar][Sar][NMeCha][Sar][hPhe(3-Cl-4-CF3)]P[Ac5c][NMeChg][NMeD]-Piperidide; lactam N-11)	20 to 50 nM
CC[C@H](C)[C@@H]1NC(=O)[C@H](CC(C)C)N(C)C(=O)C[C@@H](C(=O)N2CCCCC2)N(C)C(=O)[C@H](C2CCCC2)N(C)C(=O)C2(CCCC2)NC(=O)[C@@H]2CCCN2C(=O)[C@H](CCc2ccc(C(F)(F)F)c(Cl)c2)NC(=O)CN(C)C(=O)[C@H](C2CCC2)N(C)C(=O)[C@@H]2CCN2C(=O)[C@H](C)N(C)C1=O [Compound 127] ([NMeL]I[NMeA][Aze][NMeGly(cBu)][Sar][hPhe(3-Cl-4-CF3)]P[Ac5c][NMeGly(cPent)][NMeD]-Piperidide; lactam N-11)	20 to 50 nM
CC[C@H](C)[C@@H]1NC(=O)[C@H](C)N(C)C(=O)C[C@@H](C(=O)N2CCCCC2)N(C)C(=O)[C@H](C2CCCCC2)N(C)C(=O)C2(CCCC2)NC(=O)[C@@H]2CCCN2C(=O)[C@H](CCc2cc(Cl)c(Cl)c(Cl)c2)NC(=O)CN(C)C(=O)[C@H](CC2CCCCC2)N(C)C(=O)CN(C)C(=O)CN(C)C1=O [Compound 2059, (3S,9S,18S,21S,25S,28S,34S)-28-cyclohexyl-9-(cyclohexylmethyl)-7,10,13,16,21,22,26,29-octamethyl-18-[(1S)-1-methylpropyl]-25-(piperidine-1-carbonyl)-3-[2-(3,4,5-trichlorophenyl)ethyl]spiro[1,4,7,10,13,16,19,22,26,29,32-undecazabicyclo[32.3.0]heptatriacontane-31,1′-cyclopentane]-2,5,8,11,14,17,20,23,27,30,33-undecone] ([NMeA]I[Sar][Sar][NMeCha][Sar][X74]P[Ac5c][NMeChg][NMeD]-Piperidide; lactam N-11)	100 to 500 nM
CC[C@H](C)[C@@H]1NC(=O)[C@H](CC(C)C)N(C)C(=O)C[C@@H](C(=O)N2CCCCC2)N(C)C(=O)[C@H](C(C)C)N(C)C(=O)C2(CCCC2)NC(=O)[C@@H]2CCCN2C(=O)[C@H](CCc2ccc(C(F)(F)F)c(Cl)c2)NC(=O)CN(C)C(=O)[C@H](CC2CCCCC2)N(C)C(=O)[C@@H]2CCN2C(=O)[C@H](CC)N(C)C1=O [Compound 1569] ([NMeL]I[NMeAbu][Aze][NMeCha][Sar][hPhe(3-Cl-4-CF3)]P[Ac5c][NMeV][NMeD]-Piperidide; lactam N-11)	100 to 500 nM
CC[C@H](C)[C@@H]1NC(=O)[C@H](C)N(C)C(=O)C[C@@H](C(=O)N2CCCCC2)N(C)C(=O)[C@H](C(C)C)N(C)C(=O)C2(CCCC2)NC(=O)[C@@H]2CCCN2C(=O)[C@H](CCc2cc(Cl)c(Cl)c(OC(C)C)c2)NC(=O)CN(C)C(=O)[C@H](CC2CCCCC2)N(C)C(=O)CN(C)C(=O)CN(C)C1=O [Compound 2079] ([NMeA]I[Sar][Sar][NMeCha][Sar][X60]P[Ac5c][NMeV][NMeD]-Piperidide; lactam N-11; C-terminus assumed)	> 500 nM
CCCOC[C@H]1C(=O)N(C)CC(=O)N[C@@H](CCc2ccc(C(F)(F)F)c(Cl)c2)C(=O)N2CCC[C@H]2C(=O)NC2(CCCC2)C(=O)N(C)[C@@H](C2CCCC2)C(=O)N(C)[C@H](C(=O)N2C3CCC2COC3)CC(=O)N(C)[C@@H](CC(C)C)C(=O)N[C@@H]([C@@H](C)CC)C(=O)N[C@@H](C)C(=O)N2CC[C@H]2C(=O)N1C [Compound 1299] ([NMeL]IA[Aze][NMeS](Propyl)[Sar][hPhe(3-Cl-4-CF3)]P[Ac5c][NMeGly(cPent)][NMeD]-{3Oxa8azabicyclo(3.2.1)octane}; lactam N-11)	20 to 50 nM
